Results on 19 compounds are retold here after US11554171B2, “Compounds and methods for the targeted degradation of bromodomain-containing proteins” (Arvinas Operations, Inc., priority 2015, dated 2023).

Some results are limits rather than exact numbers.

Usually DC50 stands for the concentration at which degradation of the target reaches its halfway point.

The assay has as its system c-myc in 22RV-1 cells. The assay can be described thus: Human c-myc ELISA assay. It counts as cell-based. The following applies: Homo sapiens; for Emax: 22Rv1, 18 h, read-out: Degradation of BRD4: Maximum inhibition (%) c-Myc ELISA in 22RV1 cells; for DC50: 22Rv1, read-out: Degradation of BRD4: DC50 (uM) c-Myc ELISA in 22RV1 cells. The procedure, abridged: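 c-myc levels measured by ELISA in RIPA lysates of 22RV-1 cells, calibrated with a 333-0 pg/ml standard curve. Lysates came from cells exposed for 18 h to an 8-point, 1:3 dose series starting at 300 nM or 1 μM final in 0.1% DMSO. Suppression potency given as DC50.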

With `Cc1ncsc1-c1ccc(CNC(=O)[C@@H]2C[C@@H](O)CN2C(=O)[C@H](C(C)C)n2cc(-c3ccnc(O[C@H]4C[C@@H](NC(=O)C[C@@H]5N=C(c6ccc(Cl)cc6)c6c(sc(C)c6C)-n6c(C)nnc65)C4)c3)cn2)cc1` [Example 178, (2S,4R)-4-hydroxy-N-{[4-(4-methyl-1,3-thiazol-5-yl)phenyl]methyl}-1-[(2S)-3-methyl-2-(4-{2-[(1,3-cis)-3-{2-[(9S)-7-(4-chlorophenyl)-4,5,13-trimethyl-3-thia-1,8,11,12-tetraazatricyclo[8.3.0.0^2,6]trideca-2(6),4,7,10,12-pentaen-9-yl]acetamido}cyclobutoxy]pyridin-4-yl}-1H-pyrazol-1-yl)butanoyl]pyrrolidine-2-carboxamide], the Emax stood at 99% and the DC50 was in the range of 0.01 to 0.1 µM.

Regarding `Cc1ncsc1-c1ccc(CNC(=O)[C@@H]2C[C@@H](O)CN2C(=O)[C@@H](NC(=O)COCCCOCCCOc2ccc(NC(=O)C[C@@H]3N=C(c4ccc(Cl)cc4)c4c(sc(C)c4C)-n4cnnc43)cc2)C(C)(C)C)cc1` [Example 53], the Emax is 56% and the DC50 was more than 1 µM.

`Cc1ncsc1-c1ccc([C@H](C)NC(=O)[C@@H]2C[C@@H](O)CN2C(=O)[C@H](C(C)C)n2cc(-c3ccnc(N4CC[C@@H](NC(=O)C[C@@H]5N=C(c6ccc(Cl)cc6)c6c(sc(C)c6C)-n6c(C)nnc65)C4)c3)cn2)cc1` [Example 266]: the Emax amounted to 97% and the DC50 is less than 0.01 µM.

Regarding `Cc1ncsc1-c1ccc([C@H](C)NC(=O)[C@@H]2C[C@@H](O)CN2C(=O)[C@H](C(C)C)n2cc(-c3cnc(O[C@H]4C[C@H](NC(=O)C[C@@H]5N=C(c6ccc(Cl)cc6)c6c(sc(C)c6C)-n6c(C)nnc65)C4)cn3)cn2)cc1` [Example 284], the Emax amounted to 93.4% and the DC50 is less than 0.01 µM.

On to `Cc1ncsc1-c1ccc([C@H](C)NC(=O)[C@@H]2C[C@@H](O)CN2C(=O)[C@H](C(C)C)n2cc(-c3ccnc(N4CC[C@H](NC(=O)C[C@@H]5N=C(c6ccc(Cl)cc6)c6c(sc(C)c6C)-n6c(C)nnc65)C4)c3)cn2)cc1` [Example 264], for which the Emax worked out at 97% and the DC50 is less than 0.01 µM.

For the compound `Cc1ncsc1-c1ccc(CNC(=O)[C@@H]2C[C@@H](O)CN2C(=O)[C@@H](c2cc(OCCO[C@H]3C[C@@H](NC(=O)C[C@@H]4N=C(c5ccc(Cl)cc5)c5c(sc(C)c5C)-n5c(C)nnc54)C3)no2)C(C)C)cc1` [Example 317], the Emax turned out to be 89.9% and the DC50 was less than 0.01 µM.

As to `Cc1ncsc1-c1ccc(CNC(=O)[C@@H]2C[C@@H](O)CN2C(=O)[C@@H](NC(=O)COCCCOCCCCOCCCOc2ccc(NC(=O)C[C@@H]3N=C(c4ccc(Cl)cc4)c4c(sc(C)c4C)-n4c(C)nnc43)cc2)C(C)(C)C)cc1` [Example 13], the Emax stood at 100% and the DC50 was 0.01 to 0.1 µM.

Regarding `Cc1ncsc1-c1ccc(CNC(=O)[C@@H]2C[C@@H](O)CN2C(=O)[C@H](c2cc(OCCO[C@H]3C[C@@H](NC(=O)C[C@@H]4N=C(c5ccc(Cl)cc5)c5c(sc(C)c5C)-n5c(C)nnc54)C3)no2)C(C)C)cc1` [Example 316], the Emax is 71.4% and the DC50 lay within 0.01 to 0.1 µM.

`Cc1sc2c(c1C)C(c1ccc(Cl)cc1)=N[C@@H](CC(=O)N[C@H]1C[C@@H](Oc3cc(-c4cnn([C@@H](C(=O)N5C[C@H](O)C[C@H]5C(=O)N[C@@H](C)c5ccc(-n6ccnc6C)cc5)C(C)C)c4)ccn3)C1)c1nnc(C)n1-2` [Example 287]: the Emax came out at 17.3% and the DC50 is more than 1 µM.

Consider `Cc1sc2c(c1C)C(c1ccc(Cl)cc1)=N[C@@H](CC(=O)N[C@H]1C[C@@H](Oc3cc(-c4cnn([C@@H](C(=O)N5C[C@H](O)C[C@H]5C(=O)N[C@@H](C)c5ccc(-c6nccn6C)cc5)C(C)C)c4)ccn3)C1)c1nnc(C)n1-2` [Example 292], for which the Emax was determined as 10% and the DC50 was more than 1 µM.

With `Cc1ncsc1-c1ccc(CNC(=O)[C@@H]2C[C@@H](O)CN2C(=O)[C@@H](NC(=O)Cc2ccc(N3CC[C@H](NC(=O)C[C@@H]4N=C(c5ccc(Cl)cc5)c5c(sc(C)c5C)-n5c(C)nnc54)C3)cn2)C(C)(C)C)cc1` [Example 93], the Emax turned out to be 74.2% and the DC50 fell in the range of 0.1 to 1 µM.

Consider `Cc1ncsc1-c1ccc(CNC(=O)[C@@H]2C[C@@H](O)CN2C(=O)[C@@H](NC(=O)COCCOCCOc2ccc(NC(=O)C[C@@H]3N=C(c4ccc(Cl)cc4)c4c(sc(C)c4C)-n4c(C)nnc43)cc2)C(C)(C)C)cc1` [Example 10, (2S,4R)-1-[(2S)-2-(2-{2-[2-(4-{2-[(9S)-7-(4-chlorophenyl)-4,5,13-trimethyl-3-thia-1,8,11,12-tetraazatricyclo[8.3.0.0^2,^6]trideca-2(6),4,7,10,12-pentaen-9-yl]acetamido}phenoxy)ethoxy]ethoxy}acetamido)-3,3-dimethylbutanoyl]-4-hydroxy-N-{[4-(4-methyl-1,3-thiazol-5-yl)phenyl]methyl}pyrrolidine-2-carboxamide], for which the Emax was found to be 100% and the DC50 is 0.01 to 0.1 µM.

On to `Cc1ncsc1-c1ccc([C@H](C)NC(=O)[C@H]2C[C@@H](O)CN2C(=O)[C@@H](NC(=O)CN2CCC(O[C@H]3C[C@H](NC(=O)C[C@@H]4N=C(c5ccc(Cl)cc5)c5c(sc(C)c5C)-n5c(C)nnc54)C3)CC2)C(C)(C)C)cc1` [Example 347], for which the Emax is less than 5% and the DC50 is more than 1 µM.

Regarding `Cc1ncsc1-c1ccc(CNC(=O)[C@@H]2C[C@@H](O)CN2C(=O)[C@@H](NC(=O)COCCC(=O)N2CC[C@H](NC(=O)C[C@@H]3N=C(c4ccc(Cl)cc4)c4c(sc(C)c4C)-n4c(C)nnc43)C2)C(C)(C)C)cc1` [Example 88], the Emax turned out to be 85.9% and the DC50 fell in the range of 0.1 to 1 µM.

Take `Cc1ncsc1-c1ccc(CNC(=O)[C@@H]2C[C@@H](O)CN2C(=O)[C@@H](NC(=O)Cc2ccc3cc(CCNC(=O)C[C@@H]4N=C(c5ccc(Cl)cc5)c5c(sc(C)c5C)-n5c(C)nnc54)oc3c2)C(C)(C)C)cc1` [Example 97]: the Emax was 100% and the DC50 was less than 0.01 µM.

As for `Cc1ncsc1-c1ccc([C@H](C)NC(=O)[C@@H]2C[C@@H](O)CN2C(=O)[C@@H](NC(=O)CO[C@H]2C[C@H](OCCNC(=O)C[C@@H]3N=C(c4ccc(Cl)cc4)c4c(sc(C)c4C)-n4c(C)nnc43)C2)C(C)(C)C)cc1` [Example 256], the Emax turned out to be 89.5% and the DC50 was less than 0.01 µM.

On to `Cc1ncsc1-c1ccc([C@H](C)NC(=O)[C@@H]2C[C@@H](O)CN2C(=O)[C@@H](NC(=O)Cc2ccc(-c3cn([C@H](C)CNC(=O)C[C@@H]4N=C(c5ccc(Cl)cc5)c5c(sc(C)c5C)-n5c(C)nnc54)cn3)cc2)C(C)(C)C)cc1` [Example 340], for which the Emax is 92.2% and the DC50 was in the range of 0.01 to 0.1 µM.

For `Cc1sc2c(c1C)C(c1ccc(Cl)cc1)=N[C@@H](CC(=O)N[C@H]1C[C@@H](Oc3ccc4oc(C(=O)N[C@H](C(=O)N5C[C@H](O)C[C@H]5C(=O)N[C@@H](C)c5ccc(-n6ccnc6C)cc5)C(C)(C)C)cc4c3)C1)c1nnc(C)n1-2` [Example 261], the Emax turned out to be 92.7% and the DC50 lay within 0.01 to 0.1 µM.

In the case of `Cc1ncsc1-c1ccc([C@H](C)NC(=O)[C@@H]2C[C@@H](O)CN2C(=O)[C@@H](NC(=O)CCc2cc(F)cc(O[C@@H](C)CNC(=O)C[C@@H]3N=C(c4ccc(Cl)cc4)c4c(sc(C)c4C)-n4c(C)nnc43)c2)C(C)(C)C)cc1` [Example 200], the Emax amounted to 96.5% and the DC50 was less than 0.01 µM.
